ChEMBL document CHEMBL1201862, “PubChem BioAssay data set” (2004)
Several values for one entry are separate records, joined by “and”; a condition that tells them apart may be missing. Equal values may be shown once.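 96-well plates; 48 h exposure; 5 concentrations. Endpoints by linear interpolation between flanking doses. Not reached: highest tested concentration assigned. The concentration for 50% growth inhibition is given as GI50.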 Activity calls are given as the source filed them. No stated cut-off is given here; in the data, active = GI50 up to about 1.1 µM and inactive = higher.

Columns and labels:
Test in all cases: growth of human tumour cells (NCI), 48 h
[1] = test system: HOP-92
[2] = test system: CAKI-1
[3] = test system: HL-60
[4] = test system: NCI-H460
[5] = test system: SNB-75
[6] = test system: 786-0
[7] = test system: NCI-H522
[8] = test system: MDA-MB-231
[9] = test system: DU-145
[10] = test system: HCT-15
[11] = test system: SW-620
[12] = test system: A498
[13] = test system: SK-MEL-28
[14] = test system: UACC-62
[15] = test system: IGROV-1
[16] = test system: NCI-H226
[17] = test system: HCT-116
[18] = test system: T47D
[19] = test system: PC-3
[20] = test system: OVCAR-3
[21] = test system: SF-539
[22] = test system: LOX IMVI
[23] = test system: SK-MEL-2
[24] = test system: HT-29
[25] = test system: OVCAR-4
[26] = test system: Hs-578T
[27] = test system: SN12C
[28] = test system: MDA-MB-435
[29] = test system: CCRF-CEM
[30] = test system: SK-OV-3
[31] = test system: TK-10
[32] = test system: NCI/ADR-RES
[33] = test system: SF-295
[34] = test system: MOLT-4
[35] = test system: UACC-257
[36] = test system: U-251
[37] = test system: MCF7
[38] = test system: SNB-19
[39] = test system: RXF 393
[40] = test system: M14
[41] = test system: SK-MEL-5
[42] = test system: KM12
[43] = test system: EKVX
[44] = test system: ACHN
[45] = test system: COLO 205
[46] = test system: HOP-62
[47] = test system: OVCAR-8
[48] = test system: MDA-N
[49] = test system: RPMI-8226
[50] = test system: K562
[51] = test system: NCI-H23
[52] = test system: UO-31
[53] = test system: OVCAR-5
[54] = test system: SF-268
[55] = test system: HCC 2998
[56] = test system: A549
[57] = test system: Malme-3M
[58] = test system: SR

SMILES: CC(=O)c1ccc(NCc2cc(O)ccc2O)cc1
- GI50 [1]: 17.9 µM (inactive)
- GI50 [2]: 17.9 µM (inactive)
- GI50 [3]: 3.53 µM (inactive)
- GI50 [4]: 23.1 µM (inactive)
- GI50 [5]: 13.7 µM (inactive)
- GI50 [6]: 13.3 µM (inactive)
- GI50 [7]: 31.3 µM (inactive)
- GI50 [8]: 21.8 µM (inactive)
- GI50 [9]: 23 µM (inactive)
- GI50 [10]: 24.9 µM
- GI50 [11]: 36.7 µM (inactive)
- GI50 [12]: 36.1 µM (inactive)
- GI50 [13]: 40.3 µM (inactive)
- GI50 [14]: 15.3 µM (inactive)
- GI50 [15]: > 100 µM (inactive)
- GI50 [16]: 34.7 µM (inactive)
- GI50 [17]: 17.4 µM (inactive)
- GI50 [18]: 14.3 µM (inactive)
- GI50 [19]: 15.2 µM (inactive)
- GI50 [20]: 7.06 µM (inactive)
- GI50 [21]: 14.5 µM (inactive)
- GI50 [22]: 24.8 µM (inactive)
- GI50 [23]: 20.4 µM (inactive)
- GI50 [24]: 32.1 µM (inactive)
- GI50 [25]: 18.5 µM (inactive)
- GI50 [26]: 29.4 µM (inactive)
- GI50 [27]: 25.5 µM (inactive)
- GI50 [28]: 21.1 µM (inactive)
- GI50 [29]: 8.55 µM (inactive)
- GI50 [30]: 23 µM (inactive)
- GI50 [31]: 15.3 µM (inactive)
- GI50 [32]: 36.5 µM (inactive)
- GI50 [33]: 17.8 µM (inactive)
- GI50 [34]: 3.85 µM (inactive)
- GI50 [35]: 17.5 µM (inactive)
- GI50 [36]: 21.8 µM (inactive)
- GI50 [37]: 21.7 µM (inactive)
- GI50 [38]: 38.8 µM (inactive)
- GI50 [39]: 14 µM (inactive)
- GI50 [40]: 19.1 µM (inactive)
- GI50 [41]: 18.3 µM (inactive)
- GI50 [42]: 14.2 µM (inactive)
- GI50 [43]: 30 µM (inactive)
- GI50 [44]: 18.5 µM (inactive)
- GI50 [45]: 11.8 µM (inactive)
- GI50 [46]: 20.6 µM (inactive)
- GI50 [47]: 23.8 µM (inactive)
- GI50 [48]: 20.4 µM (inactive)
- GI50 [49]: 5.38 µM (inactive)
- GI50 [50]: 32.2 µM (inactive)
- GI50 [51]: 22.5 µM (inactive)
- GI50 [52]: 11.4 µM (inactive)
- GI50 [53]: 21.3 µM (inactive)

SMILES: COC(=O)C1(Cc2ccccc2)Cc2c(C)ccc(C)c2C1=O (stereo not drawn)
- GI50 [1]: 20.1 µM (inactive)
- GI50 [3]: 20.2 µM (inactive)
- GI50 [4]: 31.9 µM (inactive)
- GI50 [5]: 17.3 µM (inactive)
- GI50 [6]: 37.5 µM (inactive)
- GI50 [7]: 19.2 µM (inactive)
- GI50 [8]: 15.7 µM (inactive)
- GI50 [9]: 49.2 µM (inactive)
- GI50 [10]: 31 µM
- GI50 [11]: 40.6 µM (inactive)
- GI50 [12]: 46.8 µM (inactive)
- GI50 [13]: 42.5 µM (inactive)
- GI50 [14]: 11.5 µM (inactive)
- GI50 [15]: 36.7 µM (inactive)
- GI50 [16]: 21.1 µM (inactive)
- GI50 [17]: 19.8 µM (inactive)
- GI50 [18]: 16.7 µM (inactive)
- GI50 [19]: 26.3 µM (inactive)
- GI50 [20]: 29.2 µM (inactive)
- GI50 [21]: 39.9 µM (inactive)
- GI50 [22]: 17.2 µM (inactive)
- GI50 [54]: 39.6 µM (inactive)
- GI50 [24]: 19.8 µM (inactive)
- GI50 [25]: 32.4 µM (inactive)
- GI50 [26]: 5.64 µM (inactive)
- GI50 [27]: 47.8 µM (inactive)
- GI50 [28]: 17.4 µM (inactive)
- GI50 [29]: 34.8 µM (inactive)
- GI50 [30]: 35.3 µM (inactive)
- GI50 [31]: 49 µM (inactive)
- GI50 [55]: 28 µM (inactive)
- GI50 [32]: 28.1 µM (inactive)
- GI50 [33]: 31.8 µM (inactive)
- GI50 [34]: 18.7 µM (inactive)
- GI50 [35]: 25.8 µM (inactive)
- GI50 [36]: 30 µM (inactive)
- GI50 [37]: 28.7 µM (inactive)
- GI50 [38]: 48.4 µM (inactive)
- GI50 [56]: 11.1 µM (inactive)
- GI50 [57]: 21.4 µM (inactive)
- GI50 [39]: 21.8 µM (inactive)
- GI50 [40]: 25.1 µM (inactive)
- GI50 [41]: 11.3 µM (inactive)
- GI50 [42]: 13.8 µM (inactive)
- GI50 [43]: 4.69 µM (inactive)
- GI50 [44]: 26.9 µM (inactive)
- GI50 [45]: 12.4 µM (inactive)
- GI50 [46]: 56.9 µM (inactive)
- GI50 [58]: 23.9 µM (inactive)
- GI50 [47]: 14.4 µM (inactive)
- GI50 [48]: 37.1 µM (inactive)
- GI50 [49]: 29 µM (inactive)
- GI50 [50]: 30.5 µM (inactive)
- GI50 [51]: 24.2 µM (inactive)
- GI50 [52]: 10.8 µM (inactive)
- GI50 [53]: 69.5 µM (inactive)

SMILES: COC(=O)/C=C/c1cc(OC)c2c(c1)C(C(=O)OC)C(c1ccc(O)c(OC)c1)O2 (stereo not drawn)
- GI50 [5]: 1.95 µM (inactive) and 1.51 µM (inactive) and 1.94 µM (inactive)
- GI50 [6]: 3.44 µM (inactive) and 2.21 µM (inactive) and 4.33 µM (inactive)
- GI50 [8]: 2.49 µM (inactive) and 4.51 µM (inactive) and 3.15 µM (inactive)
- GI50 [9]: 3.72 µM (inactive) and 3.18 µM (inactive) and 4.32 µM (inactive)
- GI50 [12]: 8.95 µM (inactive) and 15.2 µM (inactive) and 8.2 µM (inactive)
- GI50 [18]: 3.87 µM (inactive) and 7.14 µM (inactive) and 3.73 µM (inactive)
- GI50 [19]: 3.13 µM (inactive) and 2.84 µM (inactive) and 2.79 µM (inactive)
- GI50 [21]: 2.69 µM (inactive) and 2.17 µM (inactive) and 1.82 µM (inactive)
- GI50 [54]: 7.87 µM (inactive) and 8.04 µM (inactive) and 5.83 µM (inactive)
- GI50 [26]: 2.69 µM (inactive) and 2.38 µM (inactive) and 1.67 µM (inactive)
- GI50 [30]: 5.71 µM (inactive) and 5.64 µM (inactive) and 3.26 µM (inactive)
- GI50 [33]: 2.2 µM (inactive) and 2.36 µM (inactive) and 1.22 µM (inactive)
- GI50 [36]: 3.4 µM (inactive) and 3.29 µM (inactive) and 3.13 µM (inactive)
- GI50 [56]: 6.25 µM (inactive) and 5.69 µM (inactive) and 6 µM (inactive)
- GI50 [57]: 4.58 µM (inactive) and 4.39 µM (inactive) and 2.74 µM (inactive)
- GI50 [39]: 1.88 µM (inactive) and 2.98 µM (inactive) and 2.43 µM (inactive)
- GI50 [40]: 4.05 µM (inactive) and 5.74 µM (inactive) and 3.53 µM (inactive)
- GI50 [41]: 2.27 µM (inactive) and 2.57 µM (inactive) and 1.4 µM (inactive)
- GI50 [42]: 2.83 µM (inactive) and 3.34 µM (inactive) and 2.13 µM (inactive)
- GI50 [51]: 5.08 µM (inactive) and 3.93 µM (inactive) and 5.18 µM (inactive)
- GI50 [52]: 4.98 µM (inactive) and 4.86 µM (inactive) and 9.53 µM (inactive)

SMILES: CC1OC(c2ccccc2)=CC(OCc2ccccc2)[C@H]1OCc1ccccc1 (stereo partly drawn)
- GI50 [2]: > 10 µM (inactive)
- GI50 [5]: > 10 µM (inactive)
- GI50 [6]: > 10 µM (inactive)
- GI50 [8]: > 10 µM (inactive)
- GI50 [10]: > 10 µM
- GI50 [11]: > 10 µM (inactive)
- GI50 [13]: > 10 µM (inactive)
- GI50 [14]: > 10 µM (inactive)
- GI50 [15]: > 10 µM (inactive)
- GI50 [18]: > 10 µM (inactive)
- GI50 [19]: > 10 µM (inactive)
- GI50 [54]: > 10 µM (inactive)
- GI50 [27]: > 10 µM (inactive)
- GI50 [29]: > 10 µM (inactive)
- GI50 [30]: > 10 µM (inactive)
- GI50 [31]: > 10 µM (inactive)
- GI50 [55]: > 10 µM (inactive)
- GI50 [33]: > 10 µM (inactive)
- GI50 [34]: > 10 µM (inactive)
- GI50 [37]: > 10 µM (inactive)
- GI50 [56]: > 10 µM (inactive)
- GI50 [57]: > 10 µM (inactive)
- GI50 [39]: > 10 µM (inactive)
- GI50 [40]: > 10 µM (inactive)
- GI50 [41]: > 10 µM (inactive)
- GI50 [42]: > 10 µM (inactive)
- GI50 [43]: > 10 µM (inactive)
- GI50 [46]: > 10 µM (inactive)
- GI50 [58]: > 10 µM (inactive)
- GI50 [47]: > 10 µM (inactive)
- GI50 [48]: > 10 µM (inactive)
- GI50 [49]: > 10 µM (inactive)
- GI50 [51]: > 10 µM (inactive)
